Assay results as given in US20190071670A1, “Methods Of Treatment For Alpha-1 Antitrypsin Deficiency” (Arrowhead Pharmaceuticals, Inc., priority 2016, published 2019).

How the values were obtained:
Z-AAT globules = experiment: PAS-D staining and digital quantitation of Z-AAT globules in PiZ mouse liver; assay type: in vivo, human (expressed in PiZ mice); settings: for area of the liver covered with globules reduced / smaller globules: 6 month old female PiZ mice, single IV 8 mg/kg + 8 mg/kg MLP delivery polymer
Experimental: (§1) AAT RNAi agent was administered to PiZ mice. Each mouse received a biweekly administration of an intravenous (IV) dose of 8 mg/kg AAT RNAi agent with 8 mg/kg of MLP delivery polymer for 8 weeks. Mice were bled weekly to monitor hAAT levels in serum and were sacrificed on day 57 after administration of AAT RNAi agent with MLP delivery polymer. Liver samples were harvested and fixed in 10% neutral-buffered formalin and embedded in paraffin. Inflammatory infiltration was assessed by H&E staining. […] PiZ mice injected biweekly with saline had significant globule accumulation as well as inflammatory infiltration around damaged or dead hepatocytes. Aggregation of Z-hAAT was visualized by performing diastase-resistant periodic acid Schiff (PAS-D) staining on liver sections. Diastase digestion of glycogen prior to performing a PAS stain allows positive staining of Z-AAT protein accumulation, or “globules”. […] The number of globules, the size of the globules and the area of the liver covered by globules was digitally quantitated from liver specimens stained with PAS-D. Mice treated with AAT RNAi agent had 85% fewer globules, 85% smaller globules, and 96% less area of the liver covered with globules than saline-injected controls (FIG. 3).
Human AAT protein levels in serum were monitored for 29 days. At the indicated times, blood samples were collected and assayed for hAAT by ELISA. Day 1 samples were collected prior to trigger administration. For mRNA analysis, 3-4 mice were euthanized at each of days 3, 8, 15, 22, and 29. For euthanized mice, cardiac stick were performed for serum isolation for AAT ELISA (200 μl serum). Half of the left lateral liver lobe was collected and snap-freeze in liquid nitrogen for RNA isolation. The remainder of the left lobes were embedded into paraffin blocks for PAS-D staining with hematoxylin as counter-stain. Serum hAAT levels in mice given AAT Duplex Pair SEQ ID NO: 5/6 were 95% reduced on day 8 and remained reduced to day 29, at which time they were 79% reduced. Mice given AAT Duplex Pair SEQ ID NO: 5/6 were euthanized at either day 3, 8, 15, 22 or 29. Mice given saline or Luciferase siRNA control (SEQ ID 7/8) were euthanized on day 29. Levels of hAAT mRNA in the livers were measured by RT-qPCR. The hAAT mRNA in mice given AAT Duplex Pair SEQ ID NO: 5/6 was reduced by 97% on day 3 and remained reduced on day 29, at which time levels were 56% reduced. The size of the globules and the area of the liver covered by globules was digitally quantitated from liver specimens stained with PAS-D. Duplex Pair SEQ ID NO: 5/6 treated mice had 70% smaller globules at day 15 and 62% smaller globules at day 29. The area of the liver covered with globules was 83% reduced on day 15 and 72% reduced on day 29 (FIG. 5).

Z-hAAT = experiment: Semi-quantitative Western blot of soluble (monomer) and insoluble (polymer) Z-hAAT in PiZ mouse liver; assay type: in vivo, human (expressed in PiZ mice)
Experimental: A modified western blot protocol was used to separate the soluble and insoluble Z-hAAT fractions under non-denaturing conditions as previously described (Mueller et al. Molecular Therapy 2012).
PiZ mice treated biweekly with 8 mg/kg AAT RNAi agent for 32 weeks were compared with mice at start of study (baseline) and control mice injected for 32 weeks with saline vehicle. Monomeric and polymeric Z-hAAT protein in the livers of these mice were compared by semi-quantitative Western blotting (FIG. 7). […] Monomeric Z-AAT was reduced by 90% and polymeric Z-AAT was reduced by 48% in the AAT RNAi agent treated mice (p<0.0001).
One animal from each of Groups 2, 3, and 4 died prior to completion of the study. After sacrifice, monomeric and polymeric Z-hAAT protein in the livers of these mice were compared by semi-quantitative Western blotting over a course of 3 separate runs. Western blot Run 1 included six mice from Group 1, four mice from Group 2, and five mice from Group 4. Western blot Run 2 includes three mice from Group 1, six mice from Group 3 and 5 mice from Group 5. Western blot Run 3 includes three mice from Group 1, 2 mice from Group 4, 2 mice from Group 5, 7 mice from Group 6.

[1] = system: liver morphology of PiZ mice; experiment: Liver histology (H&E) of PiZ mice; assay type: in vivo
Experimental: as §1
Baseline mice had significant globule accumulation with globules that were 5-10 microns in diameter, compressed nuclei, apoptosis and inflammatory cell infiltration. Saline treated mice had significant globule accumulation with globules that were 25-35 microns in diameter, compressed nuclei, and inflammatory cell infiltration.

[2] = PiZ mice, four biweekly IV doses 8 mg/kg with 8 mg/kg MLP delivery polymer over 8 weeks, PAS-D
[3] = Western blot Run 1, Group 4 (n = 5): male PiZ mice, 8 mg/kg + 4 mg/kg MLP, 20 × q2w, euthanized Week 39
[4] = male PiZ mice liver, biweekly 8 mg/kg (with MLP) for 32 weeks, p<0.0001
[5] = PiZ mice, AAT RNAi agent + MLP treated, n = 16
[6] = male PiZ mice, biweekly AAT RNAi agent with MLP (Example 9)

Duplex Pair SEQ ID NO: 5/6: double-stranded AAT RNAi agent: modified antisense strand SEQ ID NO: 5 annealed to Chol-TEG sense strand SEQ ID NO: 6 (antisense TGGAACUUGGUGAUGAUAUTT; sense UAUAUAUCAUCACCAAGUUCCAT; Chol-TEG on sense strand; chemical modifications; antisense strand of dsRNA; modified_base 7 /mod_base = “2′-3′ seco corresponding nucleotide”; modified_base 2,4,6,8,10,12,14,16,18 /mod_base = “2′-deoxy-2′-fluoro corresponding nucleoside”; modified_base 3,5,9,11,13,15,17,19 /mod_base = “2′-O-methyl corresponding nucleoside”; modified_base 21 /mod_base = “5′-phosphorothioate corresponding nucleotide”; sense strand of dsRNA; modified_base 2 /mod_base = “2′-hydroxy corresponding nucleoside”; modified_base 4,6,8,10,12,14,16,18,20,22 /mod_base = “2′-deoxy-2′-fluoro corresponding nucleoside”; …)
area of the liver covered with globules reduced (Z-AAT globules; day 15): 83% | smaller globules (Z-AAT globules; day 15): 70% | area of the liver covered with globules reduced (Z-AAT globules; day 29): 72% | smaller globules (Z-AAT globules; day 29): 62% | fewer globules (number of globules) than saline-injected controls (Z-AAT globules; [2]): 85% | less area of the liver covered with globules than saline-injected controls (Z-AAT globules; [2]): 96% | smaller globules (size of the globules) than saline-injected controls (Z-AAT globules; [2]): 85% | Z-hAAT monomeric protein, Average (Standard deviation) (Z-hAAT; [3]): 71.4 (15.6) | Z-hAAT monomeric protein, Average Normalized to Baseline (Group 1) (Z-hAAT; [3]): 0.126 | Z-hAAT monomeric protein, Average Normalized to Saline (Group 2) (Z-hAAT; [3]): 0.152 | Z-hAAT polymeric protein, Average (Standard deviation) (Z-hAAT; [3]): 1809.1 (932.5) | Z-hAAT polymeric protein, Average Normalized to Baseline (Group 1) (Z-hAAT; [3]): 0.419 | Z-hAAT polymeric protein, Average Normalized to Saline (Group 2) (Z-hAAT; [3]): 0.238 | Z-AAT polymer burden and diseased liver morphology (Z-hAAT; male PiZ mice 11-17 weeks old, biweekly 4, 8 or 12 mg/kg with MLP delivery polymer (2:1) for 16, 24 or 32-33 weeks): a reduction in the Z-AAT polymer burden and a reduction in the diseased liver morphology | Monomeric Z-AAT reduced (Z-hAAT; [4]): 90% | polymeric Z-AAT reduced (Z-hAAT; [4]): 48% | Score: Inflammatory foci, Moderate (number of animals) [1, 5]: 11 | Score: Inflammatory foci, None (number of animals) [1, 5]: 5 | Score: Inflammatory foci, Severe (number of animals) [1, 5]: 0 | Score: Compressed nuclei (animals/total) ([1]; PiZ mice, AAT RNAi agent + MLP treated, n = 16, baseline 7/12, saline 13/13): 3/16 | Liver morphology and inflammatory infiltration (H&E staining) ([1]; PiZ mice, biweekly IV 8 mg/kg with 8 mg/kg MLP delivery polymer for 8 weeks, day 57): normal morphology, no detectably inflammatory infiltrate and very rare, small Z-hAAT globules | compressed nuclei [1, 6]: fewer compressed nuclei than either baseline or saline-treated mice | inflammatory infiltration [1, 6]: no inflammatory infiltration | globule diameter ([1]; male PiZ mice, biweekly AAT RNAi agent with MLP (Example 9), baseline 5-10, saline 25-35 microns): 7-10 microns | globule accumulation ([1]; male PiZ mice, biweekly AAT RNAi agent with MLP (Example 9), baseline and saline: significant): minimal to moderate
